# Legend:
# [1] = test system: beet armyworm (BAW; Spodoptera exigua: Lepidoptera); experiment: 128-well diet tray assay on beet armyworm (BAW 50); assay type: in vivo; conditions: 128-well diet tray assay, second instar BAW larvae, mortality class; for BAW 50 ug/cm2: 50 μg/cm^2 of test compound on diet
# Summary of the method: (§1)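 Two diet formats. HTS: eggs on 96-well diet overlaid with 12 μg compound, held 6 d at 29° C in dark, mean mortality of six replicates. BAW 50: three to five second-instar larvae per well on diet dosed at 50 μg/cm^2, held six days at 25° C under 14:10 light-dark, mortality averaged across eight wells.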
# [2] = test system: beet armyworm (BAW; Spodoptera exigua: Lepidoptera); experiment: 96-well microtiter plate-based high throughput (HTS) diet bioassay on beet armyworm (BAW HTS); assay type: in vivo; conditions: BAW eggs, 12 μg test compound per well, mortality at 6 d post-treatment, mortality class
# Summary of the method: as §1
# [3] = 96-well microtiter plate HTS diet assay
Structure (SMILES),BAW 50 ug/cm2 [1],BAW HTS ([2]; 96-well HTS diet bioassay),"BAW HTS [2, 3]","pest or weed control at 50 µg/cm2, 50 µg/cm2 ([1]; Spodoptera exigua, 144 h, 50 μg/cm2 of test compound on diet, read-out: BAW 50 ug/cm2)","pest or weed control at 12 µg/well, 12 µg/well ([2]; Spodoptera exigua, 144 h, 96-well HTS diet bioassay, read-out: BAW HTS)"
COC1C(C)OC(ON=Cc2ccc(-c3ncn(-c4ccc(SC(F)(F)C(F)(F)F)cc4)n3)cc2)C(OC)C1OC (stereo not shown) [Compound 105],A (the compound was tested and at least 50 percent mortality was observed),B (either (1) the compound was tested and less than 50 percent mortality was observed or (2) the compound was not tested),B (either (1) the compound was tested and less than 50 percent mortality was observed or (2) the compound was not tested),,
CCCOC1C(OC)C(C)OC(ON=Cc2ccc(-c3ncn(-c4ccc(OC(F)(F)C(F)(F)F)cc4)n3)cc2)C1OC (stereo not shown) [Compound 106],A (the compound was tested and at least 50 percent mortality was observed),B (either (1) the compound was tested and less than 50 percent mortality was observed or (2) the compound was not tested),B (either (1) the compound was tested and less than 50 percent mortality was observed or (2) the compound was not tested),,
CCCOC1C(OC)C(C)OC(ON=Cc2ccc(-c3ncn(-c4ccc(C(F)(F)F)cc4)n3)cc2)C1OC (stereo not shown) [Compound 107],A (the compound was tested and at least 50 percent mortality was observed),A (the compound was tested and at least 50 percent mortality was observed),A (the compound was tested and at least 50 percent mortality was observed),,
CCCOC1C(OC)C(C)OC(ON=Cc2ccc(-c3ncn(-c4ccc(C(F)(F)C(F)(F)F)cc4)n3)cc2)C1OC (stereo not shown) [Compound 108],A (the compound was tested and at least 50 percent mortality was observed),B (either (1) the compound was tested and less than 50 percent mortality was observed or (2) the compound was not tested),B (either (1) the compound was tested and less than 50 percent mortality was observed or (2) the compound was not tested),,
CCCCOC1C(OC)C(C)OC(ON=Cc2ccc(-c3ncn(-c4ccc(OC(F)(F)C(F)(F)F)cc4)n3)cc2)C1OC (stereo not shown) [Compound 109],A (the compound was tested and at least 50 percent mortality was observed),A (the compound was tested and at least 50 percent mortality was observed),A (the compound was tested and at least 50 percent mortality was observed),,
CCCOC1C(OC)C(C)OC(ON=Cc2ccc(-c3ncn(-c4ccc(C(F)(F)C(F)(F)C(F)(F)F)cc4)n3)cc2)C1OC (stereo not shown) [Compound 110],A (the compound was tested and at least 50 percent mortality was observed),B (either (1) the compound was tested and less than 50 percent mortality was observed or (2) the compound was not tested),B (either (1) the compound was tested and less than 50 percent mortality was observed or (2) the compound was not tested),,
CCOC1C(OC)C(C)OC(ON=Cc2ccc(-c3ncn(-c4ccc(OS(=O)(=O)C(F)(F)F)cc4)n3)cc2)C1OC (stereo not shown) [Compound 112],A (the compound was tested and at least 50 percent mortality was observed),B (either (1) the compound was tested and less than 50 percent mortality was observed or (2) the compound was not tested),B (either (1) the compound was tested and less than 50 percent mortality was observed or (2) the compound was not tested),,
"CCCO[C@@H]1[C@@H](OC)[C@@H](OC)[C@H](O/N=C/c2ccc(-c3ncn(-c4ccc(OC(F)(F)C(F)(F)F)cc4)n3)cc2)O[C@H]1C [Compound 113, 4-[1-(4-pentafluoroethyloxy-phenyl)-1H-[1,2,4]triazol-3-yl]-benzaldehyde, O-((2S,3R,4R,5S,6S)-3,4-dimethoxy-6-methyl-5-propoxy-tetrahydropyran-2-yl)-oxime]",A (the compound was tested and at least 50 percent mortality was observed),,B (either (1) the compound was tested and less than 50 percent mortality was observed or (2) the compound was not tested),> 50%,< 50%
CCOC1C(OC)C(C)OC(ON=Cc2ccc(-c3ncn(-c4ccc(C(F)(F)F)cc4Cl)n3)cc2)C1OC (stereo not shown) [Compound 115],A (the compound was tested and at least 50 percent mortality was observed),B (either (1) the compound was tested and less than 50 percent mortality was observed or (2) the compound was not tested),B (either (1) the compound was tested and less than 50 percent mortality was observed or (2) the compound was not tested),,
CCOC1C(OC)C(C)OC(ON=Cc2ccc(-c3ncn(-c4ccc(C(F)(F)F)cn4)n3)cc2)C1OC (stereo not shown) [Compound 116],A (the compound was tested and at least 50 percent mortality was observed),B (either (1) the compound was tested and less than 50 percent mortality was observed or (2) the compound was not tested),B (either (1) the compound was tested and less than 50 percent mortality was observed or (2) the compound was not tested),,
CCOC1C(OC)C(C)OC(ON=Cc2ccc(-c3ncn(-c4ccc(Cl)nn4)n3)cc2)C1OC (stereo not shown) [Compound 117],B (either (1) the compound was tested and less than 50 percent mortality was observed or (2) the compound was not tested),B (either (1) the compound was tested and less than 50 percent mortality was observed or (2) the compound was not tested),B (either (1) the compound was tested and less than 50 percent mortality was observed or (2) the compound was not tested),,
CCCOC1C(OC)C(C)OC(ON=Cc2ccc(-c3ncn(-c4ccc(C(F)(F)F)cn4)n3)cc2)C1OC (stereo not shown) [Compound 118],A (the compound was tested and at least 50 percent mortality was observed),B (either (1) the compound was tested and less than 50 percent mortality was observed or (2) the compound was not tested),B (either (1) the compound was tested and less than 50 percent mortality was observed or (2) the compound was not tested),,
COCC1OC(ON=Cc2ccc(-c3ncn(-c4ccc(OC(F)(F)C(F)(F)F)cc4)n3)cc2)C(OC)C(OC)C1OC (stereo not shown) [Compound 119],A (the compound was tested and at least 50 percent mortality was observed),A (the compound was tested and at least 50 percent mortality was observed),A (the compound was tested and at least 50 percent mortality was observed),,
CCOC1C(OC)C(C)OC(ON=Cc2ccc(-c3ncn(-c4ccc(OC(F)(F)F)cc4)n3)cc2)C1OC (stereo not shown) [Compound 120],A (the compound was tested and at least 50 percent mortality was observed),A (the compound was tested and at least 50 percent mortality was observed),A (the compound was tested and at least 50 percent mortality was observed),,
CCOC1C(OC)C(C)OC(ON=Cc2ccc(-c3ncn(-c4ccc(C(F)(F)F)nc4)n3)cc2)C1OC (stereo not shown) [Compound 121],A (the compound was tested and at least 50 percent mortality was observed),B (either (1) the compound was tested and less than 50 percent mortality was observed or (2) the compound was not tested),B (either (1) the compound was tested and less than 50 percent mortality was observed or (2) the compound was not tested),,
CCOC1C(OC)C(C)OC(ON=Cc2ccc(-c3ncn(-c4ccc(OC(F)(F)F)cc4)n3)cn2)C1OC (stereo not shown) [Compound 123],A (the compound was tested and at least 50 percent mortality was observed),B (either (1) the compound was tested and less than 50 percent mortality was observed or (2) the compound was not tested),B (either (1) the compound was tested and less than 50 percent mortality was observed or (2) the compound was not tested),,
CCOC1C(OC)C(C)OC(ON=Cc2ccc(-c3ncn(-c4ccc(OC(F)(F)C(F)(F)Br)cc4)n3)cc2)C1OC (stereo not shown) [Compound 124],A (the compound was tested and at least 50 percent mortality was observed),B (either (1) the compound was tested and less than 50 percent mortality was observed or (2) the compound was not tested),B (either (1) the compound was tested and less than 50 percent mortality was observed or (2) the compound was not tested),,
CCOc1ccc(-n2cnc(-c3ccc(C=NOC4OC(C)C(OC)C(OCC)C4OC)cc3)n2)cc1 (stereo not shown) [Compound 125],A (the compound was tested and at least 50 percent mortality was observed),B (either (1) the compound was tested and less than 50 percent mortality was observed or (2) the compound was not tested),B (either (1) the compound was tested and less than 50 percent mortality was observed or (2) the compound was not tested),,
CCOC1C(OC)C(C)OC(ON=Cc2ccc(-c3ncn(-c4ccc(C#N)cc4)n3)cc2)C1OC (stereo not shown) [Compound 126],A (the compound was tested and at least 50 percent mortality was observed),B (either (1) the compound was tested and less than 50 percent mortality was observed or (2) the compound was not tested),B (either (1) the compound was tested and less than 50 percent mortality was observed or (2) the compound was not tested),,
CCOC1C(OC)C(C)OC(ON=Cc2ccc(-c3ncn(-c4ccc([N+](=O)[O-])cc4)n3)cc2)C1OC (stereo not shown) [Compound 127],A (the compound was tested and at least 50 percent mortality was observed),B (either (1) the compound was tested and less than 50 percent mortality was observed or (2) the compound was not tested),B (either (1) the compound was tested and less than 50 percent mortality was observed or (2) the compound was not tested),,
